Tests used:
Caco-2 = assay: cells; conditions: Homo sapiens
[1] = target: T1, Dual specificity mitogen-activated protein kinase kinase 1 (Homo sapiens, UniProt Q02750)
LoVo [2] = assay: cells; conditions: Homo sapiens
[3] = target: Epidermal growth factor receptor (Homo sapiens, UniProt P00533)
[4] = target: Serine/threonine-protein kinase AKT (Homo sapiens, UniProt P31751+Q9Y243+P31749); assay: Inhibition of Akt phosphorylation in LoVo cells; assay type: functional, cell-based
LoVo [5] = assay: Inhibition of tyrosine phosphorylation in LoVo cells; assay type: functional, cell-based; conditions: Homo sapiens
[6] = target: T1, Dual specificity mitogen-activated protein kinase kinase 1; assay: Inhibition of MEK1 phosphorylation in LoVo cells; assay type: functional, cell-based

T1 sequence (Q02750 whole entry): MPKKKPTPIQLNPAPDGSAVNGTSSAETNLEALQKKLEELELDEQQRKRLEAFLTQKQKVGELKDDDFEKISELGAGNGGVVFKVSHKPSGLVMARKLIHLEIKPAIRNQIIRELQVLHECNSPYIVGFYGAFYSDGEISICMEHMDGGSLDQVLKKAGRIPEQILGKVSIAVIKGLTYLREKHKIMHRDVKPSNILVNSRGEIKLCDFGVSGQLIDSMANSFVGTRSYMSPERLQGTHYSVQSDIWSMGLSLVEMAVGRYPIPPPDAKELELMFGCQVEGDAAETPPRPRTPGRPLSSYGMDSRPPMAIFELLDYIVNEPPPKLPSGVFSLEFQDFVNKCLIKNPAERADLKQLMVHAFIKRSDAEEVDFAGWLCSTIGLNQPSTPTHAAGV
Epidermal growth factor receptor, sequence (P00533 whole entry): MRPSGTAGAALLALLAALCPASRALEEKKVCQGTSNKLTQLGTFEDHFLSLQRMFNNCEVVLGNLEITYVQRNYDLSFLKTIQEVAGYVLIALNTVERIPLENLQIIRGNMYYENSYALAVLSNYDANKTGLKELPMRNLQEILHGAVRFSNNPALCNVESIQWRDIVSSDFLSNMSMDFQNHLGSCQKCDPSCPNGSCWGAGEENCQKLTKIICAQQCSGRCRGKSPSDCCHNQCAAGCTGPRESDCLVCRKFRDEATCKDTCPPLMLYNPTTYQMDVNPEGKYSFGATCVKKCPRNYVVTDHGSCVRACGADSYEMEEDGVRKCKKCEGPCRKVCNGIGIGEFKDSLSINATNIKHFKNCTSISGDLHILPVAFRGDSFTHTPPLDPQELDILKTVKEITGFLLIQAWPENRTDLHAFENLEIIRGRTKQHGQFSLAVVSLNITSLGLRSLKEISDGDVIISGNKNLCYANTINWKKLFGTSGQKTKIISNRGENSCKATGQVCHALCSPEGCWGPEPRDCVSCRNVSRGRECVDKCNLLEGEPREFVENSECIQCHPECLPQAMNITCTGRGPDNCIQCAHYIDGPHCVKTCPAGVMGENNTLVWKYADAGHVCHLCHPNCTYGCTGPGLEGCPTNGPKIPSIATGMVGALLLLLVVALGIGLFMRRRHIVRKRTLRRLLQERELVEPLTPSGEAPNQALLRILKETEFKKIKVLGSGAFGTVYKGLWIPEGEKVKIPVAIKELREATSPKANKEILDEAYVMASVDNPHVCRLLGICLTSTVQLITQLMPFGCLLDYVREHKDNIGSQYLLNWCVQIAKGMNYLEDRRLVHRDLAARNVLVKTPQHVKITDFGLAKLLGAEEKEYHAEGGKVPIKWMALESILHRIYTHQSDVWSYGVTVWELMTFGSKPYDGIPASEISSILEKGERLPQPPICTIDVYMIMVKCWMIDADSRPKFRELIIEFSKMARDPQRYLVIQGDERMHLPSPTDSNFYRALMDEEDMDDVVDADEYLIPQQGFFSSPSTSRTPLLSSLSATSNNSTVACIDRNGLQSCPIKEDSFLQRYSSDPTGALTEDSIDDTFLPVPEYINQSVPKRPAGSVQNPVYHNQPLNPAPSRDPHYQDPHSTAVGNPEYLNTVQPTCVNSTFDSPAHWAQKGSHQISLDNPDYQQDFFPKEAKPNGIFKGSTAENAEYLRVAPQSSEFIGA

Structure (SMILES)	IC50 (Caco-2)	IC50 [1]	IC50 (LoVo [2])	IC50 [3]	IC50 [4]	IC50 (LoVo [5])	IC50 [6]
COc1cc2c(Nc3ccc(Sc4nccn4C)c(Br)c3)c(C#N)cnc2cc1OCCCN1CCOCC1	5200 nM	2 nM	5 nM				
COc1cc2c(Nc3ccc(Sc4ccccn4)c(Cl)c3)c(C#N)cnc2cc1OCCCN1CCOCC1	> 1000 nM	8 nM	200 nM				
COc1cc2c(Nc3ccc(Sc4nccn4C)c(Cl)c3)c(C#N)cnc2cc1OCCCN1CCOCC1	> 1000 nM	2 nM	5 nM	> 1000 nM	> 1000 nM	> 1000 nM	8 nM
COc1cc2c(Nc3ccc(Cc4nccn4C)c(Cl)c3)c(C#N)cnc2cc1OCCCN1CCOCC1	5500 nM	212 nM	380 nM				
CCOc1cc2ncc(C#N)c(Nc3ccc(Sc4nccn4C)c(Cl)c3)c2cc1OCC	> 1000 nM	10 nM	7 nM				
COc1cc2c(Nc3ccc(Sc4nccn4C)cc3)c(C#N)cnc2cc1OCCCN1CCOCC1	4700 nM		43 nM				
COc1cc2c(Nc3ccc(Oc4ccccc4)cc3)c(C#N)cnc2cc1OCCCN1CCOCC1	5500 nM	4 nM	400 nM	> 1000 nM	> 1000 nM	> 1000 nM	> 1000 nM

Second part, the compound after the results:

IC50 (Caco-2)	IC50 [1]	IC50 (LoVo [2])	IC50 [3]	IC50 [4]	IC50 (LoVo [5])	IC50 [6]	Structure (SMILES)
900 nM	2 nM	342 nM					COc1cc2c(Nc3ccc(Sc4nc(C)c(C)n4C)c(Cl)c3)c(C#N)cnc2cc1OCCCN1CCOCC1
2700 nM	9 nM	56 nM					COc1cc2c(Nc3ccc(Sc4nccs4)c(Cl)c3)c(C#N)cnc2cc1OCCCN1CCOCC1
> 1000 nM							CCN1CCN(CCCOc2cc3ncc(C#N)c(Nc4ccc(Sc5nccn5C)c(Cl)c4)c3cc2OC)CC1
> 1000 nM	2 nM	36 nM					COc1cc2c(Nc3ccc(Sc4nccn4C)c(Cl)c3)c(C#N)cnc2cc1OCCCN1CC[S+]([O-])CC1
> 1000 nM	1 nM	325 nM					COc1cc2c(Nc3ccc(Sc4ncc(C)n4C)c(Cl)c3)c(C#N)cnc2cc1OCCCN1CCOCC1
3200 nM		36 nM					COc1cc2c(Nc3ccc(Sc4nccn4C)c(C)c3)c(C#N)cnc2cc1OCCCN1CCOCC1
> 1000 nM	4 nM	10 nM					COc1cc2c(Nc3ccc(Sc4nccn4C)c(Cl)c3)c(C#N)cnc2cc1OCCCN1CCCC1
> 1000 nM		131 nM					O=C(NOCC1CC1)c1ccc(F)c(F)c1Nc1ccc(I)cc1Cl [CI-1040]
